From patent US8568736B2, “Polypeptide derivatives of parathyroid hormone (PTH)” (The General Hospital Corporation, priority 1999, dated 2013)
Blank lines part the entries; values can stand above or below the substance they belong to. No end group written: not given here.

What was measured:
[1] = target: T1, rat PTH-1 receptor (endogenous, ROS 17/2.8 cells) (Rattus norvegicus, UniProt P25961); experiment: cAMP response in osteoblastic ROS 17/2.8 cells; assay type: cell-based; settings: ROS 17/2.8 cells
T1 construct: The rat osteoblastic cell line ROS 17/2.8; endogenous in cells; host or cells: ROS 17/2.8 rat osteoblastic cells
T1 sequence (P25961 27-591): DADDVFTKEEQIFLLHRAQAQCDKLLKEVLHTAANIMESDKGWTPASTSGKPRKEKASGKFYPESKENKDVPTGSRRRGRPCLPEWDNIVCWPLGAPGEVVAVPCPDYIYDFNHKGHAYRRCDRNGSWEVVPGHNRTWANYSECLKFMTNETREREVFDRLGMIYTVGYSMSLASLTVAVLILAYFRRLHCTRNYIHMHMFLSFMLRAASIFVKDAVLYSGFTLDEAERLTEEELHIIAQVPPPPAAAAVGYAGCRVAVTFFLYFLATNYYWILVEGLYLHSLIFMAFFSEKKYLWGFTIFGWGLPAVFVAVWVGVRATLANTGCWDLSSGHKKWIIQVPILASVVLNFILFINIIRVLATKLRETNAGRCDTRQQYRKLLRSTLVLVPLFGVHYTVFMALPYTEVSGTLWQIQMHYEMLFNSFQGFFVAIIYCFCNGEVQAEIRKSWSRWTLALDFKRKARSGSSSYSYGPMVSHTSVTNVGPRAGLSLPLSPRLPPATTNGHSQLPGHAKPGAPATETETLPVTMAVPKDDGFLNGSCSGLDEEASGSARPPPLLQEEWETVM
Method: The rat osteoblastic cell line ROS 17/2.8 (Majeska, R. J., et al, Endocrinology 107:1494-1503 (1980)) expresses endogenous PTH-1 receptors at levels of 80,000 per cell and the human osteoblastic cell line, SAOS-2, express endogenous PTH-1 receptors at levels of ˜30,000 per cell.
(§1) Stimulation of cells with peptide analogs was performed in 24-well plates. Cells were rinsed with 0.5 mL of binding buffer and treated with 200 μL of cAMP assay buffer (Dulbecco's modified Eagle's medium containing 2 mM 3-isobutyl-1-methylxanthine, 1 mg/mL bovine serum albumin, 35 mM Hepes-NaOH, pH 7.4) and 100 μL of binding buffer containing varying amounts of peptide analog (final volume=300 μL). The medium was removed after incubation for 1 h at room temperature, and the cells were frozen (−80° C.), lysed with 0.5 mL 50 mM HCl, and refrozen (−80° C.). The cAMP content of the diluted lysate was determined by radioimmunoassay. Where possible, cAMP EC50 and Maximum response values were determined using nonlinear regression (see below).
All calculations were performed using Microsoft Excel. Nonlinear regression analysis of cAMP stimulation data was performed using parameters, defined as the Minimum, Maximum, Emax, midpoint (EC50), and slope of the response curve. The predicted response (yp) for a given dose (x) of peptide was calculated using the following equation: yp=Min+[(Max−Min)/(1+(EC50/x)^slope)]. The initial parameter values were estimated from the primary data, and the Excel “Solver function” was then used to vary the four parameters in order to minimize the differences between the predicted and actual responses (least-squares method) (Bowen, W., & Jerman, J., Trends in Pharmacol. Sci. 16:413-417 (1995)). The statistical significance between two data sets was determined using a one-tailed Student's t-test, assuming unequal variances for the two sets.

PTH-1 receptor [2] = target: T2, PTH-1 receptor (Homo sapiens, UniProt Q03431); experiment: cAMP stimulation in HKRK-B7 cells (LLC-PK1 stably transfected with hPTH-1 receptor); assay type: cell-based; parameters: expressed in transfected cells; host or cells: LLC-PK1 porcine kidney cells, clone HKRK-B7; settings: for Emax / cAMP signaling activity (in words): HKRK-B7 cells; for Emax: Emax constrained to ±1 SD of rPTH(1-34) response at 100 nM; for cAMP signaling activity (in words): dose-response
T2 sequence (Q03431 27-593): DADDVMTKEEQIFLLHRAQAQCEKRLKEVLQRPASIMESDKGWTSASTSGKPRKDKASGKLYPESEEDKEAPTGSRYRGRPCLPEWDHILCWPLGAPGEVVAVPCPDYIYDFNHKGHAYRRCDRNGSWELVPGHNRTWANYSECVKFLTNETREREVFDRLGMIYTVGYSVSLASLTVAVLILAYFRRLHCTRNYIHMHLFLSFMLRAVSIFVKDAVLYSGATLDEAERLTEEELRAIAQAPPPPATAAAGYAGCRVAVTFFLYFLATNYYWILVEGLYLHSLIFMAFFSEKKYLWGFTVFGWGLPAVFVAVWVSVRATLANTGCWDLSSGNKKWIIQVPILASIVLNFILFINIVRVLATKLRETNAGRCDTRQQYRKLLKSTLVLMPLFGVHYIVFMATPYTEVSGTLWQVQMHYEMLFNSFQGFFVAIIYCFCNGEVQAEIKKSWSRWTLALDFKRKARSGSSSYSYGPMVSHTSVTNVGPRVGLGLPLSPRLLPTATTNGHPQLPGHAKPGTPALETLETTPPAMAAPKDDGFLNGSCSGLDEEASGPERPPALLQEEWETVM
Text: (§2) Stably transfected derivatives of the porcine kidney cell line LLC-PK1, HKRK-B7 (Takasu, H., et al., J. Bone Miner. Res. 14:11-20 (1999)) and hPR2-20, express the human PTH-1 and human PTH-2 receptors respectively. The HKRK-B7 LLC-PK1 cell line expresses the hPTH-1 receptor at ˜1×10^6 receptors/cell (Takasu, H., et al., J. Bone Miner. Res. 14:11-20 (1999)), and the hPR2-22 LLC-PK1 cell line expresses the hPTH-2 receptor at ˜0.8×10^6 receptors/cell (provided by H. Takasu and F. R. Bringhurst, Endocrine Unit, Massachusetts General Hospital).
as §1
(§3) Intracellular cAMP accumulation may be measured as described by Abou-Samra et al., J. Biol. Chem. 262:1129, 1986) or other methods known to those of skill in the art. Intracellular cAMP is extracted by thawing the cells in 1 ml of 50 mM HCl and analyzed by a specific radioimmunoassay using an anti-cAMP antibody (e.g., Sigma, St. Louis, Mo.). A cAMP analog (2′-O-monosuccinyl-adenosine 3′:5′-cyclic monophosphate tyrosyl methyl ester, obtained from Sigma) which is used as a tracer for cAMP is iodinated by the chloramine T method. Free iodine is removed by adsorbing the iodinated cAMP analog onto a C18 Sep-pak cartridge (Waters, Milford, Mass.). After washing with dH2O, the iodinated cAMP analog is eluted from the Sep-pak Cartridge with 40% acetonitrille (ACN) and 0.1% trifluoroacetic acid (TFA). The iodinated cAMP analog is lyophilized, reconstituted in 1 ml 0.1% TFA, and injected into a C18 reverse phase HPLC column (Waters). The column is equilibrated with 10% ACN in 0.1% TFA, and eluted with gradient of 10-30% ACN in 0.1% TFA. This allows separation of the mono-iodinated cAMP analog from the non-iodinated cAMP analog. The tracer is stable for up to 4 months when stored at −20° C. The standard used for the assay, adenosine 3′:5′-cyclic monophosphate, is purchased from Sigma. Samples (1-10 µl of HCl extracts) or standards (0.04-100 fmol/tube) are diluted in 50 mM Na-acetate (pH 5.5), and acetylated with 10 μl of mixture of triethylamine and acetic anhydride (2:1 vol:vol). After acetylation, cAMP antiserum (100 μl) is added from a stock solution (1:4000) made in PBS (pH 7.4), 5 mM EDTA and 1% normal rabbit serum. The tracer is diluted in PBS (pH 7.4) with 0.1% BSA, and added (20,000 cpm/tube). The assay is incubated at 4° C. overnight. The bound tracer is precipitated by adding 100 μl of goat anti-rabbit antiserum (1:20 in PBS) and 1 ml of 7% polyethyleneglycol (MW 5000-6000), centrifuging at 2000 rpm for 30 min. at 4° C. The supernatant is removed and the bound radioactivity is counted in a gamma-counter (Micromedic). To compute the cAMP data, logit calculations were performed in Excel spreadsheets. Typically, the assay sensitivity is 0.1 fmol/tube, and the standard concentration that displaces 50% of tracer is 5 fmol/tube.
(§4) All calculations were performed using Microsoft Excel. Nonlinear regression analysis of cAMP stimulation data was performed using parameters, defined as the Minimum, Maximum, Emax, midpoint (EC50), and slope of the response curve. The predicted response (yp) for a given dose (x) of peptide was calculated using the following equation: yp=Min+[(Max−Min)/(1+(EC50/x)^slope)]. […]

[3] = target: T3, cloned rat PTH-1 receptor (Rattus norvegicus, UniProt P25961); settings: CHO cells, Azurani 1996; cited from earlier work
T3 construct: host or cells: CHO cells
T3 sequence (P25961 27-591): T1 sequence (P25961 27-591)

PTH-1 receptor [4] = target: T2, PTH-1 receptor; parameters: expressed in transfected cells; host or cells: LLC-PK1 porcine kidney cells, clone HKRK-B7; settings: HKRK-B7 cells; Luck et al. 1999; cited from earlier work
hPTH-2 Receptor = target: T4, hPTH-2 Receptor (Homo sapiens, UniProt P49190); experiment: cAMP stimulation in LLC-P2R-22 cells (LLC-PK1 stably transfected with hPTH-2 receptor); assay type: cell-based; settings: LLC-P2R-22 cells (hPTH-2 Receptor)
T4 construct: expressed in transfected cells; host or cells: LLC-PK1 porcine kidney cells (clone given as hPR2-20, hPR2-22, LLC-P2R-22 or P2R-22)
Text: as §2, §1, §3, §4

[5] = test system: truncated PTH-1 receptor rP1R-ΔNt; settings: truncated rat PTH receptor vs intact rPTH-1 receptor; Luck et al. 1999; cited from earlier work
[6] = subcutaneous, in combination with oral estrogen, postmenopausal osteoporosis; cited from earlier work
rat renal membranes = settings: Rosenblatt 1981; cited from earlier work
PTH-1 receptor [7] = target: T2, PTH-1 receptor; settings: literature; cited from earlier work

T4 sequence (P49190 25-550): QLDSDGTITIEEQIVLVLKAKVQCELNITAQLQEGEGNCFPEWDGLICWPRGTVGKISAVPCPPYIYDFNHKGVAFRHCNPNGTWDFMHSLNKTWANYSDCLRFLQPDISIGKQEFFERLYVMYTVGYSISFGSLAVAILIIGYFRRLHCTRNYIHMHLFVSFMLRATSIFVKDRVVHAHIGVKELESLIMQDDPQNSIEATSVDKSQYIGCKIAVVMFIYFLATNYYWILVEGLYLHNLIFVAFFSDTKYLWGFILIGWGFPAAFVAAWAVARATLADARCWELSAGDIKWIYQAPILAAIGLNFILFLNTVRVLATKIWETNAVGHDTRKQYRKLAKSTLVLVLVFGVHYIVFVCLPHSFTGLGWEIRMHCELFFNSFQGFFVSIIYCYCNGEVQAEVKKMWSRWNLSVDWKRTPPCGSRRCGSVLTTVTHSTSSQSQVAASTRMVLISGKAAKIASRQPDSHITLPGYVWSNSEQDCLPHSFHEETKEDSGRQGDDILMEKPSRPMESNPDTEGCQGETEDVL

Emax [1]: 382 picomole/well
Emax (PTH-1 receptor [2]): 262 ± 9 picomole/well
fold more potent than native PTH(1-14) (PTH-1 receptor [2]; LLC-PK1 cells stably expressing hPTH-1 receptor, cAMP): 220 fold
Substance: AVAEIQLMHARAKW-NH2 [Peptide #2, AlaValAlaGluIleGlnLeuMetHisAlaArgAlaLysTrp-amide]

Substance: PTHrP(1-16) (AVSEHQLLHDKGKSIQ; Parathyroid hormone-related protein; UniProt P12272 37-52, looked up, fragment) [short NH2-terminal PTHrP peptide from the literature]
AC activity [3]: inactive

Emax (PTH-1 receptor [2]): 235 ± 3 picomole/well
Substance: AVAEIQLMHQRAKH-NH2 [compound 3, AlaValAlaGluIleGlnLeuMetHisGlnArgAlaLysHis-amide]

Substance: PTH(1-10) (AVSEIQLMHN-NH2; UniProt P04089 32-41, looked up, fragment) [native rat PTH fragment analog]
cAMP response of native rat PTH fragments (in words) (PTH-1 receptor [4]): little or no cAMP response

Substance: PTH(1-9) (AVSEIQLMH-NH2; UniProt P04089 32-40, looked up, fragment) [native rat PTH fragment analog]
cAMP response of native rat PTH fragments (in words) (PTH-1 receptor [4]): little or no cAMP response

Substance: PTH(1-11) (AVSEIQLMHNL-NH2; UniProt P04089 32-42, looked up, fragment) [native rat PTH fragment analog]
cAMP response of native rat PTH fragments (in words) (PTH-1 receptor [4]): little or no cAMP response

Emax (hPTH-2 Receptor): 501 picomole/well
cAMP signaling activity (in words) (PTH-1 receptor [2]): signaling activity was readily observed
Emax (PTH-1 receptor [2]): 238 ± 9 picomole/well
Substance: AVAEIQLMHARA-NH2 [compound 5, AlaValAlaGluIleGlnLeuMetHisAlaArgAla-amide]

Substance: PTH(1-12) (AVSEIQLMHNLG-NH2; UniProt P04089 32-43, looked up, fragment) [native rat PTH fragment analog]
cAMP response of native rat PTH fragments (in words) (PTH-1 receptor [4]): little or no cAMP response

Emax (hPTH-2 Receptor): 501 picomole/well
cAMP signaling activity (in words) (PTH-1 receptor [2]): signaling activity was readily observed
Emax (PTH-1 receptor [2]): 239 ± 7 picomole/well
Substance: AVAEIQLMHARAK-NH2 [compound 4, AlaValAlaGluIleGlnLeuMetHisAlaArgAlaLys-amide]

Substance: PTH(1-34)
fold weaker with the truncated receptor than with the intact receptor [5]: 1000 fold
bone density [6]: increases in bone density

Substance: PTH(1-13) (AVSEIQLMHNLGK-NH2; UniProt P04089 32-44, looked up, fragment) [native rat PTH fragment analog]
cAMP response of native rat PTH fragments (in words) (PTH-1 receptor [4]): little or no cAMP response

Substance: bPTH(1-12) (AVSEIQFMHNLG; Parathyroid hormone; UniProt P01268 32-43, looked up, fragment) [short NH2-terminal PTH peptide from the literature]
adenyl cyclase activity (rat renal membranes): inactive

Substance: PTH(15-34)
cAMP response (PTH-1 receptor [7]): inactive

cAMP signaling activity (in words) (PTH-1 receptor [2]): elicited some activity
Substance: [A3,Q10]rPTH(1-10) (AVAEIQLMHQ-NH2)
